The source of these data is patent publication US20250288583A1, “Treatment of Mucus Hypersecretion” (priority 2024, published 2025).

The test system of experiment [1] is nasal mucus secretion. Briefly: Range-finding study of CPS-125, Up-Down method, nasal mucus secretion as endpoint. The class given is in vivo, human. The text has this: The recognition that inhibition of mucus hypersecretion might be a valuable and unique pharmacological attribute of TRPM8 agonists prompted the applicant to re-examine such compounds in his inventory. CPS-125 was described by Wei in U.S. Pat. No. 7,417,048 (August 2008), and its structure is in Table 10. This molecule incorporates a sulfamoyl group to increase water solubility and is sulfadiazine coupled to p-menthanecarboxamide. In a range-finding study, CPS-125 was suspended in 1% Ethanol/2% Polysorbate 80/saline and titrated using the Up-Down method of Dixon (Annu. Rev. Pharmacol. Toxicol. 20:441-462.1980) with nasal mucus secretion as the endpoint. The effective concentration for reducing secretions by +80% was 8 mg/ml of CPS-125. […] Such heterocyclic structures include pyrrole, furan, oxane, thiophene, thioxazole, and oxazole derivatives.
CPS-125 was active when administered as drops or in a manually activated spray. The nose is pinched and released after instilling 0.3 to 0.5 mL into the nostrils. After pinch and release, the reflex sniff or snort enhances delivery of the drops to the ostiomeatal complex. Using a power-assisted nebulizer enhances delivery of CPS-125. CPS-125's molecular weight of 416 Daltons is the highest of the tested compounds. Normally, large lipophilic molecules are not expected to penetrate secretions to reach target. Apparently, the sulfamoyl group confers the qualities of penetration, stability, and retention to make it a viable lead candidate for inhibition of mucus hypersecretion.

The subject of experiment [2] is oral cavity. Description: Chili-pepper sauce test (oral cavity). The settings on record: Table 6; grades 0, +, ++ without key. The class given is in vivo, human. Further details: scale not given here. The source says: (§1) Cooling agents have been assayed in various ways depending on intended use. For example, for the skin the test substance can be applied on philtrum skin, using descriptions of coolness on a scale of 0 to 3. For the ocular surface, the active ingredient can be applied to the closed eyelids using a wipe. In the oral cavity, drug applications are on the posterior dorsal surface of the tongue. For the oropharyngeal surface, the cooling agent may be applied as an orally disintegrating tablet. The ability of a cooling agent to antagonize a noxious stimuli may also be tested, using nociception from citric acid or chili pepper sauce. Responses are usually measured using a Visual Analog Scale with a numerical rating. For nasal responses, however, such procedures have not been standardized. Some endpoints to consider are open and comfortable breathing, the presence or absence of sniffles, and the secretion of phlegm.

The test system of experiment [3] is ocular margins. Briefly: Cooling duration bioassay on eyelids/ocular margins. The settings on record: for Eyelids/Ocular Surface: Table 6, cooling duration, non-keratinized; for Ocular Surface: Table 7, Gly esters. The class given is in vivo, human.
Description: (§2) FIG. 1. Comparison of cooling duration of various p-menthanecarboxamide analogs on philtrum skin versus ocular margins. The philtrum skin is keratinized, but the ocular margins are not. The test substances numbered 1 to 11 are: D-Ala-OiPr, Gly-OiPr, D-Ala-OEt, D-Ala-OMe, D-Ala-GlynPr, GlynPr, D-Ala-OnBu, GlynBu, GlyOEt, L-Ala-OEt, and N-Me-D-Ala-OEt, respectively. Two outliers (1 and 2) were identified as preferred embodiments because they preferentially cool the ocular margins. The nasal cavity surfaces like the ocular margins are not keratinized.
as §1

Experiment [4] has as its target T1, hTRPM8 channel (Homo sapiens, UniProt Q7Z2W7).
T1 construct: host or cells: CHO cells
Briefly: TRPM8 receptor assay, calcium entry (Fluo-8, FLIPR) in transfected CHO cells. The settings on record: for Potency Relative to L-menthol: ratio of TRPM8 EC50 values, menthol = 1.0. The class given is cell-based. The source says:
FIG. 4. Agonist activities of TRPM8 analogs. […] The relative fluorescence (RF) unit on the ordinate represents calcium entry into transfected cells. […] The structures of these compounds are in Table 4.
The applicant has synthesized and examined a series of p-menthanecarboxamides conjugated to amino acid esters. […] This class of molecules is called N-alkylcarbonyl-amino acid esters. GlyOiPr is a p-menthanecarboxamide conjugate of glycine isopropyl (iPr) ester. It is similar in structure to WS-5, a cooling agent used as a food additive. WS-5 is the p-menthane-glycine ethyl (Et) ester, or GlyOEt. […] These in vitro effects were measured in CHO cells transfected with the hTRPM8 channel. Receptor activity was quantified using a Fluo-8 calcium kit and a Fluorescence Imaging Plate Reader ([…]™).

Experiment [5] has as its system philtrum skin. Description: Cooling duration bioassay on philtrum skin. The format is in vivo, human.
Description: as §2, §1

For experiment [6], the system named is oropharyngeal surface. Description: Bioassay on oropharyngeal surface. The class given is in vivo, human. The following applies: Table 7; grades 0, ++ without key.
Description: as §1

Experiment [7] deals with T2, TRPV1 (Homo sapiens, UniProt Q8NER1).
T2 construct: expressed in transfected cells
Description: TRPV1 specificity assay in transfected cells. The class given is cell-based. The settings on record: FIG. 5; capsaicin positive control.

The mark [8] stands for this setting: Table 6, cooling duration, keratinized skin.

T1 sequence (Q7Z2W7 whole entry): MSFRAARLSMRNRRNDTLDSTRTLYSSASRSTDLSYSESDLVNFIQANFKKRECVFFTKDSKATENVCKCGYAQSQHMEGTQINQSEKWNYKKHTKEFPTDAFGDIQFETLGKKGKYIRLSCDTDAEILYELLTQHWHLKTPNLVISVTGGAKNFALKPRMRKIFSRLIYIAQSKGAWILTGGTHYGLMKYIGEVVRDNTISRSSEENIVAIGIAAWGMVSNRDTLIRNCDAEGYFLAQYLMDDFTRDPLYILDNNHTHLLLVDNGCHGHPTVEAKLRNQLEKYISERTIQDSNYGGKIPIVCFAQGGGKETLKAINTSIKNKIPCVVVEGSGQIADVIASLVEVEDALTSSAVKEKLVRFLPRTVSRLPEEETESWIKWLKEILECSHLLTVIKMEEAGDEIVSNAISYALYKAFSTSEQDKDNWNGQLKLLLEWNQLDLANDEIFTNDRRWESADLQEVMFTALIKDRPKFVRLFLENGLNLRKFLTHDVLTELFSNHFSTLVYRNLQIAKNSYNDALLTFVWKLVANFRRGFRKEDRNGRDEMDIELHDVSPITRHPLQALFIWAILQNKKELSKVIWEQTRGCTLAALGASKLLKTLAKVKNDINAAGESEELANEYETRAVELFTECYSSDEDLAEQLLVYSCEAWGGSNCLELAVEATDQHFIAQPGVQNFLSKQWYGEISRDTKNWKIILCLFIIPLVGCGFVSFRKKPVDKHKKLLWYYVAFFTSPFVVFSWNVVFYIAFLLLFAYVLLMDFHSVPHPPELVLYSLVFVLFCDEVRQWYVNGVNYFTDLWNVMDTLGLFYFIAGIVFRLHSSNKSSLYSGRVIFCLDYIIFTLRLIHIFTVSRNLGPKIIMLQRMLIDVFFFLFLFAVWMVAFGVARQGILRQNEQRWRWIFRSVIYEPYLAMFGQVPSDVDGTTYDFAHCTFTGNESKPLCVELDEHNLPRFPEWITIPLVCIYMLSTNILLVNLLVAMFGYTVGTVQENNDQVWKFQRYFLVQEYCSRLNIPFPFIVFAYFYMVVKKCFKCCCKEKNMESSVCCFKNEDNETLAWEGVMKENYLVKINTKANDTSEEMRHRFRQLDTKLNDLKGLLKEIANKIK
T2 sequence (Q8NER1 whole entry, species assumed): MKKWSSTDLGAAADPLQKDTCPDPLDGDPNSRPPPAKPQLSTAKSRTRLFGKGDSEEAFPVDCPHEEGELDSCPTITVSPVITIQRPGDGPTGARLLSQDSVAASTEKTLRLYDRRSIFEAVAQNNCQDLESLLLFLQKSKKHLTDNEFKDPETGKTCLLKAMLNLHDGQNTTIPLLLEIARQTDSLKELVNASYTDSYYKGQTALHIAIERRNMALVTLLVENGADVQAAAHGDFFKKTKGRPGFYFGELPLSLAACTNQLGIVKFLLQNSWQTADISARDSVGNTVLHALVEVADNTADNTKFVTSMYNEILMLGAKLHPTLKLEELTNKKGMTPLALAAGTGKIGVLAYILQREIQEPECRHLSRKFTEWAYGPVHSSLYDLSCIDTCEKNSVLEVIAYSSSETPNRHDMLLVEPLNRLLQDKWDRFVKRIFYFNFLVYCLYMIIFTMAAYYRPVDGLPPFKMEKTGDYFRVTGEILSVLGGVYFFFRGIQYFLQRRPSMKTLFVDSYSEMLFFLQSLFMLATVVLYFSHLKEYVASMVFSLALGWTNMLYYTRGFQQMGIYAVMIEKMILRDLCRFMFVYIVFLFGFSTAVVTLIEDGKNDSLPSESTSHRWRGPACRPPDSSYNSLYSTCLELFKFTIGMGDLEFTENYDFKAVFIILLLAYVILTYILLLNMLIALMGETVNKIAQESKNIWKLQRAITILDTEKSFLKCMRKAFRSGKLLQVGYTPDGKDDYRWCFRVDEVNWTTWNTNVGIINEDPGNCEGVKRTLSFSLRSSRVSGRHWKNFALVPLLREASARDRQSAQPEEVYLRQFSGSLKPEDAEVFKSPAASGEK

Consider `CC(C)[C@@H]1CC[C@@H](C)C[C@H]1C(=O)Nc1ccc(S(=O)(=O)Nc2ncccn2)cc1` [CPS-125, (1R,2S,5R)-2-Isopropyl-5-methyl-cyclohexanecarboxylic acid [4-(pyrimidin-2-ylsulfamoyl)-phenyl]-amide], for which the “Activity when administered as drops or in a manually activated spray” value in experiment [1] (0.3 to 0.5 mL into the nostrils, pinch and release) was “active”. Further, the “Duration of action among the 25+ compounds tested” value in experiment [1] (in vivo) is “longest duration of action”. In addition, in experiment [1] (suspended in 1% Ethanol/2% Polysorbate 80/saline, Up-Down method of Dixon), the “Effective concentration for reducing secretions by +80%” value turned out to be 8 mg/mL.
`CCOC(=O)CNC(=O)[C@@H]1C[C@H](C)CC[C@H]1C(C)C` [GlyOEt, [((1R,2S,5R)-2-isopropyl-5-methyl-cyclohexanecarbonyl)-amino]-acetic acid ethyl ester, reference compound]: the “Chili-Pepper Sauce Test” value in experiment [2] is 0. Also, the “Eyelids/Ocular Surface” value in experiment [3] is 15 min. Also, the “Ocular Surface” value in experiment [3] came out at 15 min. The results for the “Increase of cooling on raising the concentration” value in experiment [3] (from 1 mg/ml to 2 mg/ml) and in experiment [3] (from 1 mg/ml to 5 mg/ml) were 15 min and 22 min, respectively. In experiment [4], the “Potency Relative to L-menthol” value stood at 10.6. In addition, the “Philtrum Skin” value in experiment [5] (setting [8]) was 24 min; in experiment [5] (Table 7, Gly esters), 24 min. For the same molecule, the “Oropharyngeal Surface” value in experiment [6] was 0.
`CCCCOC(=O)CNC(=O)[C@@H]1C[C@H](C)CC[C@H]1C(C)C` [GlyOnBu, [((1R,2S,5R)-2-isopropyl-5-methyl-cyclohexanecarbonyl)-amino]-acetic acid n-butyl ester]: the “Chili-Pepper Sauce Test” value in experiment [2] came out at 0. In experiment [3], the “Eyelids/Ocular Surface” value stood at 35 min and the “Ocular Surface” value came out at 35 min. For the same molecule, the EC50 in experiment [4] (CHO cells transfected with hTRPM8, Fluo-8 calcium kit, FLIPR) was found to be 1360 nM. In addition, the “Potency Relative to L-menthol” value in experiment [4] is recorded as 2.8. Also, the “Philtrum Skin” value in experiment [5] (setting [8]) worked out at 38 min. In experiment [5] (Table 7, Gly esters), the “Philtrum Skin” value is on record as 38 min. Moreover, the “Oropharyngeal Surface” value in experiment [6] came out at 0.
`COc1cc(CNC(=O)CCCC/C=C/C(C)C)ccc1O` [capsaicin, reference compound]: the “Response of cells transfected with TRPV1” value in experiment [7] was “respond”.
